Patent US7863335B2, “Non-antibiotic intervention of chlamydial infection” (The University of Medicine and Dentistry of New Jersey, priority 2004, dated 2011)
Like-named read-outs stand apart in the source and are kept apart here.

Legend:
[1] = tested on: strain 434/bu of serovar L2 (L2, biovar LGV); assay: MOMP immunofluorescence of inclusion formation in L2-infected HeLa cells; assay type: cell-based, Chlamydia trachomatis
Protocol: Human cervical carcinoma HeLa cells grown on coverslips were exposed to an EB stock of strain 434/bu of serovar L2 (L2, biovar LGV) for 2 hours, washed to remove free EBs, and cultured in medium containing indicated concentrations of GM6001 plus 1 μg/ml cycloheximide, an inhibitor of eukaryotic protein synthesis which is commonly used to facilitate chlamydial growth. 40 hours later, cells were fixed with methanol, and reacted for 1 hour with a monoclonal antibody against the major outer membrane protein (MOMP) of L2. After three washes with PBS, coverslips were reacted with fluorescein isothiocyanate-conjugated goat anti-mouse IgG (Sigma, St. Louis, Mo.) for 30 min. After additional washes, coverslips were mounted onto glass slides and viewed with a Nikon Eclypse E1000 fluorescent microscope.

[2] = tested on: E. coli MG1655; assay: Growth of E. coli in LB broth (OD600); assay type: cell-based, Escherichia coli; details: overnight culture, concentrations indicated in FIG. 4A
Protocol: (§1) An E. coli MG1655 colony was inoculated into 10 ml LB broth, which was then divided into 2 ml aliquots. After overnight culture, OD600 measurements were taken. An overnight L. delbrueckii (ATCC 12315) culture was diluted 1:100, and cultured in the presence or absence of 20 μM of GM 6001. OD600 values were measured hourly up to 5 h postinoculation.

[3] = tested on: Salmonella Enterica Serovar Typhimurium; assay: Intracellular growth of S. enterica in HeLa cells (colony-forming units); assay type: cell-based; details: 20 μM, 1.5 and 6 h, 50 μg/ml gentamycin
Protocol: To assess whether its intracellular growth is affected by the inhibitor, HeLa cells were infected with a fresh culture of S. enterica grown to stationary phase as previously described (16). After washes to remove free bacteria, the cells were cultured with medium containing 50 μg/ml gentamycin (to kill any residual free bacteria) plus or minus 20 μM GM6001 for 1.5 and 6 h. Gentamycin was then removed by washes. Intracellular bacteria were released by 0.1% Triton X-100, serially diluted and plated onto LB agar plates. After overnight incubation at 37° C., colony-forming units were scored.

[4] = tested on: Chlamydia; assay: Titration of infectious EBs produced by infected HeLa cells; assay type: cell-based, Chlamydia trachomatis
Protocol: Inhibition of chlamydial growth was obtained when GM6001 and TAPI-0 was added to cultures at the end of the two hour attachment/entry period (FIGS. 1-3), a point where free unbound EBs had been removed by extensive washes. The entry-independent inhibition was also seen by titrating infectious EBs produced by infected HeLa cells (FIG. 6). […] At this point, EBs have already completed the entry phase and have differentiated into RBs in inclusions. Even when GM6001 treatment was started 24 h after infection, a point where the number of RBs peaks during the chlamydial developmental cycle, a 99% reduction in EB production was observed (FIG. 6).

[5] = tested on: strain UW-3/Cx of serovar D (biovar trachomatis); assay: Chlamydial lipopolysacharide immunostaining of inclusion formation, serovar D in HeLa cells; assay type: cell-based, Chlamydia trachomatis
[6] = tested on: L2; assay: Dot blot analysis of MOMP, L2 growth in HeLa cells; assay type: cell-based, Chlamydia trachomatis
[7] = tested on: L2 (biovar LGV); assay: Dot blot analysis of MOMP, L2 growth in A549 cells; assay type: cell-based, Chlamydia trachomatis; details: 40 hours after infection, 1 μg/ml cycloheximide
Protocol: Infection of A549 cells and inhibitor treatment were carried out as described above. 40 hours after infection, cells were lysed in 200 μl of H2O, a 50 μl sample of the resulting EB/RB extract was blotted onto Zeta Probe membrane (Bio-Rad), and sequentially reacted with the L2 MOMP antibody described above, and horseradish peroxidase-conjugated rabbit anti-mouse IgG.

[8] = tested on: Salmonella Enterica Serovar Typhimurium; assay: Growth of S. enterica as free-living organism in liquid medium (OD600); assay type: cell-based
[9] = tested on: A549 cells; assay: DNA synthesis ([methyl-3H]thymidine incorporation) in A549 cells; assay type: cell-based, Human
Protocol: (§2) The lack of cytotoxic activity in GM6001 was further supported by measuring DNA synthesis. Subconfluent cells grown in 24 well plates were fed with medium (0.5 ml/well) containing indicated concentrations of GM6001 for 40 hours. 2 μl of [methyl-3H]thymidine (specific activity: 20 Ci/mmole, Moravek Biochemical, Brea, Calif.) was added into the culture and incubated for 2 hours. The amount of thymidine incorporated into DNA was determined as we previously described (3).

[10] = tested on: MoPn (biovar mouse); assay: Chlamydial DNA synthesis of MoPn (biovar mouse); assay type: cell-based, Chlamydia trachomatis; details: dose response
Protocol: We next tested whether GM6001 was also effective against the remaining two biovars of C. trachomatis. […] The effect of GM6001 on biovar mouse was determined by measuring chlamydial DNA synthesis with procedures that we previously detailed (1, 3).

[11] = tested on: HeLa cells; assay: Cytotoxicity judged by cellular morphology of HeLa cells; assay type: cell-based, Human
[12] = tested on: HeLa cells; assay: DNA synthesis ([methyl-3H]thymidine incorporation) in HeLa cells; assay type: cell-based, Human
Protocol: as §2

[13] = tested on: L2; assay: Pretreatment of host HeLa cells or EBs with GM6001, immunostaining of L2 growth; assay type: cell-based, Chlamydia trachomatis
Protocol: To address whether suppression of chlamydial growth resulted from inhibition of host or bacterial enzymes, we determined the effect of pretreatment of EB and host cells with a hydroxamate on chlamydial growth. HeLa cells were cultured for 2 h with medium containing 20 °μM GM6001 and washed 3 times with medium before they were infected with a regular EB stock. Likewise, an EB stock was also incubated with GM6001, washed, and added to untreated HeLa cells. As control, GM6001 (final concentration: 20 μM) was added into and maintained in the culture medium after the attachment/entry period.

[14] = tested on: L. delbrueckii (ATCC 12315); assay: Growth of L. delbrueckii in liquid culture (OD600); assay type: cell-based, Lactobacillus delbrueckii; details: 20 μM, hourly up to 5 h postinoculation
Protocol: as §1

[15] = tested on: L2 (biovar LGV); assay: Live images (light microscope) of inclusion formation in L2-infected HeLa cells; assay type: cell-based, Chlamydia trachomatis; details: in both the presence and absence of cycloheximide
From the text: The inhibition of L2 growth by GM6001 could be viewed directly under a light microscope without immunostaining. Shown in FIG. 1C are images obtained from live cultures.

With `CC(C)C[C@H](CC(=O)NO)C(=O)N[C@@H](Cc1ccc2ccccc2c1)C(=O)N[C@@H](C)C(N)=O` [TAPI-0, N-(R)-[2-(Hydroxyaminocarbonyl)methyl]-4-methylpentanoyl-L-naphthylalanyl-L-alanine amide] the “inhibition of L2 infection (MOMP immunofluorescence)” value ([1]; at both 7.5 and 15 μM) was “strongly inhibited” and the “growth of E. coli (OD600)” value [2] was “did not show any effects”.

`CNC(=O)[C@H](Cc1c[nH]c2ccccc12)NC(=O)[C@@H](CC(=O)NO)CC(C)C` [GM6001] was tested, and the “growth of S. enterica inside HeLa cells (colony-forming units)” value [3] was “did not inhibit”, the inhibition at 20 µM ([4]; Chlamydia, HeLa, 20 μM, added at the end of attachment/entry period, read-out: inhibition of EB production) was greater than 100% and the “inhibition of EB production” value ([4]; added 8 h after infection) was “comparable inhibitory activity”. For the same compound, the “reduction in EB production” value ([4]; treatment started 24 h after infection) was 99%, the “inclusion formation by serovar D” value [5] was “efficiently suppressed inclusion formation” and the “number of inclusions (L2 inclusion formation)” value ([1]; increasing concentrations of GM6001 plus 1 μg/ml cycloheximide, 40 hours) was “number of inclusions declined progressively”. The “chlamydial (L2) growth, MOMP dot blot” value [6] was “no MOMP signals”, the “MOMP signal (L2 growth)” value [7] was “no signal was detected” and the “growth of S. enterica in liquid medium” value [8] was “had no effect”. The “DNA synthesis (thymidine incorporated into DNA)” value [9] was “did not exhibit any inhibitory effect”, the “effect on cycloheximide-induced inhibition of DNA synthesis” value [9] was “no synergistic or additive effect” and the “inhibition of MoPn growth (chlamydial DNA synthesis)” value [10] was “dose-response curve of GM6001 inhibition of MoPn growth was obtained”. The “cytotoxic effects based on morphology” value ([11]; uninfected or L2-infected HeLa cells) was “no apparent cytotoxic effects”, the “DNA synthesis (thymidine incorporated into DNA)” value [12] was “did not exhibit any inhibitory effect” and the “effect on cycloheximide-induced inhibition of DNA synthesis” value [12] was “no synergistic or additive effect”. The “chlamydial infection after pretreatment of EB stock” value ([13]; EB stock incubated with GM6001, washed, added to untreated HeLa cells) was “completely ineffective”, the “chlamydial infection after pretreatment of host HeLa cells” value ([13]; HeLa cells cultured 2 h with 20 μM GM6001, washed 3 times before infection) was “completely ineffective” and the “growth of Lactobacillus delbrueckii (OD600)” value [14] was “did not show any effects”. The “inhibition of L2 growth / inclusion formation in live cultures” value [15] was “effective against chlamydial infection”.

For `C[C@@H]1C[C@@H]([C@H](O)CC2CC(=O)NC(=O)C2)C(=O)[C@@H](C)C1` [cycloheximide], the “DNA synthesis (thymidine incorporated into DNA)” value ([9]; uninfected A549 cells, 40 hours treatment) was “effectively inhibited DNA synthesis activity” and the “DNA synthesis (thymidine incorporated into DNA)” value ([12]; uninfected HeLa cells, 40 hours treatment) was “effectively inhibited DNA synthesis activity”.

`CNC(=O)[C@H](Cc1c[nH]c2ccccc12)NC(=O)[C@H](CC(C)C)NC(=O)OC(C)(C)C` [GM6001 Negative Control, N-t-butoxycarbonyl-L-leucyl-L-tryptophan methylamide] was tested, and the “chlamydial (L2) growth, MOMP dot blot” value [6] was “no detectable effect”, the “adverse effect on morphology of HeLa cells” value ([11]; data not shown) was “no adverse effect” and the “DNA synthesis (thymidine incorporated into DNA)” value [12] was “no adverse effect”.
